Measured values taken from PMC9407205, “Neuroprotective Potential of Thinned Peaches Extracts Obtained by Pressurized Liquid Extraction after Different Drying Processes” (Foods, 2022).
Marks after values point to notes of the source that are not given here.

Columns and labels:
[1] = parallel artificial membrane permeability assay for the BBB (PAMPA-BBB); type: in vitro ADME; conditions: metabolites in the five PLE extracts, 4 h at 37 °C, pH 7.4; result in words
Experimental: The parallel artificial membrane permeability assay for the BBB assay was carried out as previously described with some modifications. Briefly, 20 mg/mL thinned peach extracts in 50% ethanol (v/v) was diluted to 5 mg/mL with potassium phosphate buffer (10 mmol/L, pH 7.4). Then, 350 μL of 5 mg/mL extracts and 350 μL of buffer were added to each well of the donor plate and the acceptor plate, respectively. The filter membrane of the donor plate was coated with 5 µL of BBB solution. Afterwards, the whole plate was incubated in the dark for 4 h at 37 °C. After incubation, 300 µL of sample from each well in the donor and acceptor plates was taken out, collected and dried. The dried acceptor and donor samples were redissolved in 50 µL of ethanol and analyzed via HPLC-Q-TOF-MS/MS as described below. The permeability across the artificial BBB of each compound was calculated in terms of cm/s, as in [16].

[2] = RNS scavenging capacity, nitric oxide (NO) radical scavenging assay; conditions: at the maximum concentration tested, 0.8 mg/mL; PLE extracts under optimized conditions and ascorbic acid
Experimental: The RNS scavenging capacity was estimated by referring to the nitric oxide (NO) radical scavenging assay described by Ho et al. (2010), with some modifications. In brief, 100 μL of the thinned peach extracts in 25% ethanol (v/v) was mixed with 50 μL of 5 mM sodium nitroprusside dehydrate in buffer (30 mmol/L phosphate buffer at pH 7.5) using a transparent 96-well plate. The mixtures were placed under white light at room temperature for 60 min. Afterwards, 100 μL of Griess reagent (500 mg sulphanilamide, 50 mg naphthylethylene diamine dihydrochloride and 1.25 mL of phosphoric acid in 48.5 mL of H2O) was added to each well. The mixtures were allowed to stand for 5 min and the absorbance was read at 546 nm. Ascorbic acid was used as the reference standard and the NO scavenging capacity was calculated as described by Sánchez-Martínez et al. (2021).

[3] = ROS scavenging capacity, oxygen radical absorbance capacity (ORAC) assay; conditions: PLE extracts under optimized conditions (50% ethanol, 180 °C) and reference standard
Experimental: The ROS scavenging capacity was measured using the oxygen radical absorbance capacity (ORAC) assay described by Ou et al. (2001). Briefly, the reaction mixture contained 100 μL of samples at different concentrations in 10% ethanol (v/v), 100 μL of 590 mmol/L AAPH in 30 mmol/L phosphate buffer (pH 7.5), 100 μL of phosphate buffer and 25 μL of 10 μmol/L fluorescein in buffer. The absorbance was read at the 485 nm excitation spectrum and 528 nm emission spectrum, and recorded at 5 min intervals for 60 min at 37 °C. Ascorbic acid was used as the reference standard and 10% ethanol (v/v) was used as the control. The ROS scavenging capacity was calculated as described by Sánchez-Martínez et al. (2021).

Row | SMILES | ability to cross the artificial BBB [1] | RNS, percentage of inhibition of nitrogen species with respect to the control [2] | ROS (IC50) [3]
1 | CC(=O)c1ccc(O)c(O)c1 [3,4-dihydroxyacetophenone, 3,4-Dihydroxyacetophenone] | could cross the BBB | – | –
2 | Cc1cc(=O)oc2c(O)c(O)ccc12 [4-methyldaphnetin, 4-Methyldaphnetin] | could cross the BBB | – | –
3 | CCCCCCCC(O)/C=C\C(O)CCC(O)CCCC(=O)O (stereo not shown) [(9Z)-5,8,11-Trihydroxyoctadec-9-enoic acid] | could cross the BBB | – | –
4 | O=C1O[C@H]([C@@H](O)CO)C(O)=C1O [Ascorbic acid] | – | 83.8 ± 4 ^a % | 3.3 ± 0.6 ^e µg/mL
5 | COc1ccc(/C=C/C(=O)O)cc1O [isoferulic acid, Isoferulic acid] | could cross the BBB | – | –
6 | CC1(C)CC[C@]2(C(=O)O)CC[C@]3(C)C(=CCC4[C@@]5(C)C[C@@H](O)[C@H](O)[C@](C)(CO)C5CC[C@]43C)[C@@H]2[C@@H]1O (stereo partly drawn) [triterpenoid 3, (1S,4aR,6aS,6bR,9S,10R,11R,12aR,14bS)-1,10,11-trihydroxy-9-(hydroxymethyl)-2,2,6a,6b,9,12a-hexamethyl-1,3,4,5,6,6a,7,8,8a,10,11,12,13,14b-tetradecahydropicene-4a-carboxylic acid] | highest permeability value | – | –
